Structures can show the parent of a compound that is named as a salt.
Biological target: human α7 nAChRs transiently expressed in Xenopus laevis oocytes (Homo sapiens (Human), UniProt P36544)
Assay: Oocyte electrophysiology screen (TEVC)
Assay type: cell-based
Conditions: 0.01 mM test compound, peak current relative to 0.2 mM ACh
Method: Oocyte Electrophysiology Screen (% ACh @ 10 μM Oocyte)
The Oocyte Electrophysiology Screen studies were performed under contract by HiQScreen Geneva, Switzerland. All experiments were carried out at human α7 nAChRs transiently expressed in Xenopus laevis oocytes using the method of cDNA expression. Currents evoked by acetylcholine or other agonist ligands were recorded using the standard two-electrode voltage-clamp configuration (TEVC). X. laevis oocytes were prepared and injected using standard procedures. Briefly, ovaries were harvested from X. laevis females that were deeply anesthetized and pithed following the animal rights rule from the Geneva canton. A small piece of ovary was isolated for immediate preparation while the remaining part was placed at 4° C. in a sterile Barth solution containing in mM: NaCl 88, KCl 1, NaHCO3 2.4, HEPES 10, MgSO4.7H2O 0.82, Ca(NO3)2.4H2O 0.33, CaCl2.6H2O 0.41, at pH 7.4, and supplemented with 20 μg/mL of kanamycin, 100 unit/mL penicillin and 100 μg/mL streptomycin. […] Cells were held at −80 mV. Data were filtered at 10 Hz, captured at 100 Hz and analyzed using proprietary data acquisition and analysis software running under Matlab (Mathworks Inc.).
Experimental Protocol and Analysis
After establishing a baseline transmembrane current, acetylcholine (ACh) was applied for 5 seconds at a concentration of 0.2 mM to establish a control ACh-evoked current response. Following a wash period of 90 s in OR2 medium (free of ACh), cells were then exposed for 30 s to the test compound applied at 0.01 mM. The same reference ACh test pulse was immediately given at the end of the compound exposure and again after 90 s of recovery in OR2 Medium (free of ACh or test compound). All data were determined in triplicate. The response evoked by the test compound was expressed as a percentage of that evoked by ACh: Response (% ACh)=100×(Itest/IACh) where Itest is the peak inward current measured during exposure to 0.01 mM of test compound and IACh is the peak inward current measured in the presence of ACh.

human α7 nAChRs transiently expressed in Xenopus laevis oocytes, sequence (P36544 23-502 limits assumed): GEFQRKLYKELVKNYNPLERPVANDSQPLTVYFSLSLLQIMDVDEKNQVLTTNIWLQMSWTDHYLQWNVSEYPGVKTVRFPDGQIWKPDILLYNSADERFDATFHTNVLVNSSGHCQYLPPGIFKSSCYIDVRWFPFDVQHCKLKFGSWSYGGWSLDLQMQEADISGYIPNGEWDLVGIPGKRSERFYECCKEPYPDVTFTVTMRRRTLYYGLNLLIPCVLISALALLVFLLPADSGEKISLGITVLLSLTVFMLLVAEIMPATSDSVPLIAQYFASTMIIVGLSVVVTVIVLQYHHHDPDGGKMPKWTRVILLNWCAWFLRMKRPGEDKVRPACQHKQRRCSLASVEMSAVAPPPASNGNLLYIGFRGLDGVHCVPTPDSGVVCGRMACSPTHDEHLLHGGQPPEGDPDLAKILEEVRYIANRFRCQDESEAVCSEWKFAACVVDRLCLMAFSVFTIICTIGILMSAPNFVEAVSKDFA

Compound	% ACh @ 10 μM Oocyte [% ACh]
Cl.O=C(N[C@@H]1C2CCN(CC2)C12CC2)c1cc2ccc(OC(F)(F)F)cc2s1 [(R)-248, (R)-N-(1′-azaspiro[cyclopropane-1,2′-bicyclo[2.2.2]octan]-3′-yl)-6-(trifluoromethoxy)benzo[b]thiophene-2-carboxamide hydrochloride]	1
Cc1coc2ccc(C(=O)N[C@@H]3C4CCN(CC4)C3(C)C)cc12 [(R)-40, (R)—N-(2,2-dimethylquinuclidin-3-yl)-3-methylbenzofuran-5-carboxamide hydrochloride]	517
O=C(N[C@H]1C2CCN(CC2)C12CC2)c1nc2ccccc2s1 [(S)-82, (S)—N-(1′-azaspiro[cyclopropane-1,2′-bicyclo[2.2.2]octan]-3′-yl)benzo[d]thiazole-2-carboxamide hydrochloride]	2
Cc1coc2ccc(C(=O)N[C@@H]3C4CCN(CC4)C34CC4)cc12 [(R)-93, (R)-3-methyl-N-(1′-azaspiro[cyclopropane-1,2′-bicyclo[2.2.2]octan]-3′-yl)benzofuran-5-carboxamide hydrochloride]	516
CC1(C)[C@H](NC(=O)c2cnn3ncccc23)C2CCN1CC2 [(R)-27, (R)—N-(2,2-dimethylquinuclidin-3-yl)pyrazolo[1,5-b]pyridazine-3-carboxamide hydrochloride]	0
COc1ccc2sc(C(=O)N[C@H]3C4CCN(CC4)C3(C)C)cc2c1 [(S)-21, (S)—N-(2,2-dimethylquinuclidin-3-yl)-5-methoxybenzo[b]thiophene-2-carboxamide hydrochloride]	1
O=C(N[C@H]1C2CCN(CC2)C12CC2)c1cc2c(cn1)OCCO2 [(S)-76, (S)—N-(1′-azaspiro[cyclopropane-1,2′-bicyclo[2.2.2]octan]-3′-yl)-2,3-dihydro-[1,4]dioxino[2,3-c]pyridine-7-carboxamide hydrochloride]	1
Cc1csc2cc(C(=O)N[C@@H]3C4CCN(CC4)C3(C)C)ccc12 [(R)-25, (R)—N-(2,2-dimethylquinuclidin-3-yl)-3-methylbenzo[b]thiophene-6-carboxamide hydrochloride]	7
CC1(C)[C@H](NC(=O)c2ccc3ccoc3c2)C2CCN1CC2 [(R)-31, (R)—N-(2,2-dimethylquinuclidin-3-yl)benzofuran-6-carboxamide hydrochloride]	294
O=C(N[C@@H]1C2CCN(CC2)C12CC2)c1cc2cccc(Cl)c2o1 [(R)-164, (R)-7-chloro-N-(1′-azaspiro[cyclopropane-1,2′-bicyclo[2.2.2]octan]-3′-yl)benzofuran-2-carboxamide hydrochloride]	266
Cc1nc2ccc(C(=O)N[C@@H]3C4CCN(CC4)C3(C)C)cc2o1 [(R)-33, (R)—N-(2,2-dimethylquinuclidin-3-yl)-2-methylbenzo[d]oxazole-6-carboxamide]	6
CC1(C)[C@H](NC(=O)c2cc3ccc(Cl)cc3o2)C2CCN1CC2.Cl [(R)-216, (R)-6-chloro-N-(2,2-dimethylquinuclidin-3-yl)benzofuran-2-carboxamide hydrochloride]	184
CC1(C)[C@H](NC(=O)c2cc3ccc(C4CCOCC4)cc3s2)C2CCN1CC2 [(R)-50, (R)—N-(2,2-dimethylquinuclidin-3-yl)-6-(tetrahydro-2H-pyran-4-yl)benzo[b]thiophene-2-carboxamide hydrochloride]	0
CC1(C)[C@H](NC(=O)c2ccc3occ(Cl)c3c2)C2CCN1CC2 [(R)-41, (R)-3-chloro-N-(2,2-dimethylquinuclidin-3-yl)benzofuran-5-carboxamide hydrochloride]	384
Cc1ccc2cc(C(=O)N[C@H]3C4CCN(CC4)C3(C)C)sc2c1 [(S)-15, (S)—N-(2,2-dimethylquinuclidin-3-yl)-6-methylbenzo[b]thiophene-2-carboxamide hydrochloride]	3
COc1ccc2cc(C(=O)N[C@H]3C4CCN(CC4)C3(C)C)sc2c1 [(S)-20, (S)—N-(2,2-dimethylquinuclidin-3-yl)-6-methoxybenzo[b]thiophene-2-carboxamide hydrochloride]	5
Nc1ncc2cc(C(=O)N[C@@H]3C4CCN(CC4)C34CC4)sc2n1 [(R)-149, (R)-2-amino-N-(1′-azaspiro[cyclopropane-1,2′-bicyclo[2.2.2]octan]-3′-yl) thieno[2,3-d]pyrimidine-6-carboxamide hydrochloride]	195
CC1(C)[C@@H](NC(=O)c2cc3ccoc3cn2)C2CCN1CC2 [(S)-22, (S)—N-(2,2-dimethylquinuclidin-3-yl)furo[2,3-c]pyridine-5-carboxamide hydrochloride]	25
O=C(NC1C2CCN(CC2)C12CC2)c1ccc2occc2c1 (single isomer, unassigned; enantiomer2) [59b, N-(1′-azaspiro[cyclopropane-1,2′-bicyclo[2.2.2]octan]-3′-yl)benzofuran-5-carboxamide-enantiomer2]	27
O=C(NC1C2CCN(CC2)C12CC2)c1cc2cc(Cl)c(Cl)cc2s1 (single isomer, unassigned; enantiomer2) [67b, 5,6-dichloro-N-(1′-azaspiro[cyclopropane-1,2′-bicyclo[2.2.2]octan]-3′-yl)benzo[b]thiophene-2-carboxamide-enantiomer2 hydrochloride]	1
Cl.O=C(N[C@@H]1C2CCN(CC2)C12CC2)c1cc2c(cn1)OCCO2 [(R)-76, (R)—N-(1′-azaspiro[cyclopropane-1,2′-bicyclo[2.2.2]octan]-3′-yl)-2,3-dihydro-[1,4]dioxino[2,3-c]pyridine-7-carboxamide hydrochloride]	129
CC1(C)[C@@H](NC(=O)c2cc3cccc(F)c3s2)C2CCN1CC2 [(S)-4, (S)—N-(2,2-dimethylquinuclidin-3-yl)-7-fluoro-benzo[b]thiophene-2-carboxamide hydrochloride]	17
O=C(NC1C2CCN(CC2)C12CC2)c1cc2cccc(C(F)(F)F)c2s1 (single isomer, unassigned; enantiomer2) [60b, N-(1′-azaspiro[cyclopropane-1,2′-bicyclo[2.2.2]octan]-3′-yl)-7-(trifluoromethyl)benzo[b]thiophene-2-carboxamide-enantiomer2]	1
O=C(NC1C2CCN(CC2)C12CC2)c1cc2cc(F)ccc2s1 (single isomer, unassigned; enantiomer2) [64b, 5-fluoro-N-(1′-azaspiro[cyclopropane-1,2′-bicyclo[2.2.2]octan]-3′-yl)benzo[b]thiophene-2-carboxamide-enantiomer2]	1

Same assay, conditions: 0.01 mM test compound, peak current relative to 0.2 mM ACh; hydrochloride

Compound	% ACh @ 10 μM Oocyte [% ACh]
O=C(NC1C2CCN(CC2)C12CC2)c1cc2cc(Cl)ccc2s1 (single isomer, unassigned; enantiomer1) [66b, 5-chloro-N-(1′-azaspiro[cyclopropane-1,2′-bicyclo[2.2.2]octan]-3′-yl)benzo[b]thiophene-2-carboxamide-enantiomer1 hydrochloride]	29
COc1ccc2cc(C(=O)NC3C4CCN(CC4)C34CC4)sc2c1 (single isomer, unassigned; enantiomer2) [73b, 6-methoxy-N-(1′-azaspiro[cyclopropane-1,2′-bicyclo[2.2.2]octan]-3′-yl)benzo[b]thiophene-2-carboxamide-enantiomer2 hydrochloride]	1
Cc1ccc2cc(C(=O)NC3C4CCN(CC4)C34CC4)sc2c1 (single isomer, unassigned; enantiomer2) [68b, 6-methyl-N-(1′-azaspiro[cyclopropane-1,2′-bicyclo[2.2.2]octan]-3′-yl)benzo[b]thiophene-2-carboxamide-enantiomer2 hydrochloride]	5
COc1ccc2sc(C(=O)NC3C4CCN(CC4)C34CC4)cc2c1 (single isomer, unassigned; enantiomer2) [74b, 5-methoxy-N-(1′-azaspiro[cyclopropane-1,2′-bicyclo[2.2.2]octan]-3′-yl)benzo[b]thiophene-2-carboxamide-enantiomer2 hydrochloride]	4
Cc1ccc2sc(C(=O)NC3C4CCN(CC4)C34CC4)cc2c1 (single isomer, unassigned; enantiomer2) [69b, 5-methyl-N-(1′-azaspiro[cyclopropane-1,2′-bicyclo[2.2.2]octan]-3′-yl)benzo[b]thiophene-2-carboxamide-enantiomer2 hydrochloride]	1
